Laboratory results from patent US8445509B2, “Fused heterocyclic derivatives and use thereof” (Takeda Pharmaceutical Company Limited, priority 2008, dated 2013).

Legend:
[1] = system: Human gastric cancer cell line MKN-45; experiment: Human gastric cancer cell line MKN-45 growth inhibitory test; assay type: cell-based; details: MKN-45, 72 h, culture for 3 days; for inhibition at 1 µM: 1 μM test substance, read-out: inhibitory rate (%) at 1 μM; for IC50: read-out: IC50 value
Protocol: Human gastric cancer cell line MKN-45 (RIKEN BioResource Center) was cultured in RPMI1640 (Invitrogen) containing 10% bovine fetal serum in a gas incubator at 37° C., 5% CO2. MKN-45 cells were treated with trypsin/EDTA and recovered. The cells were suspended in RPMI1640 containing 0.3% bovine fetal serum, plated on a 96 well flat bottom plate at a cells density of 3000 cells/50 μL per well. After culturing overnight, various concentrations of test substance were dissolved in RPMI1640 containing 0.3% bovine fetal serum and added to each well by 50 μL. After culture for 3 days, a Cell counting kit-8 reagent (DOJINDO LABORATORIES) was added to each well by 10 μL, and reacted in an incubator at 37° C., 5% CO2 for 2-3 hr. After the reaction, the absorbance of each well at 450 nm was measured by a microtiter plate reader. The concentration of a test substance necessary for inhibiting the growth by 50% (IC50 value) was calculated using a cell proliferation rate with addition of the test substance at each concentration and according to the nonlinear regression analysis using GraphPad Prism [Sigmoidal dose response (variable slope)]. The cell proliferation rate (%) with addition of a test substance at each concentration was calculated by the following formula. As a positive control (100% growth), dimethyl sulfoxide was added instead of a test substance. As a negative control (0% growth), the compound of Reference Example 136 (WO2005/030140, Entry 104), which is a known c-Met inhibitor, was added in large excess (10 μM) instead of a test substance.

[2] = target: T1, Tie2 intracellular domain protein (Homo sapiens, UniProt Q02763); experiment: TIE2 kinase inhibitory activity (AlphaScreen); assay type: biochemical
T1 construct: 50 ng/mL of Tie2 intracellular domain protein (Millipore); purchased Millipore
Protocol: A test compound dissolved in dimethyl sulfoxide (DMSO) was diluted with a buffer (50 mM Tris-HCl (pH 7.5), 5 mM MgCl2, 5 mM MnCl2, 2 mM dithiothreitol, 0.01% Tween-20). A buffer (10 μL) containing 50 ng/mL of Tie2 intracellular domain protein (Millipore) and 250 ng/ml, of biotin labeled polypeptide biotinyl-poly-Glu:Tyr (4:1) (CIS bio International) was added to the compound solution (5 μL). At 5 min from the mixing of the kinase enzyme, the compound and the biotin labeled polypeptide, a buffer (10 μL) containing 5 μM ATP was added, and the mixture was reacted at 25° C. for 10 min. The reaction was quenched by the addition of 25 μL of a stop solution (100 mM EDTA disodium salt, 62.5 mM HEPES buffer (pH 7.4), 250 mM NaCl, 0.1% bovine serum albumin, 10 μg/ml AlphaScreen assay streptavidin donor beads (Streptavidin Donor beads: PerkinElmer), 10 μg/ml, AlphaScreen assay anti-phosphotyrosine recognition antibody PT-66 binding acceptor beads (Anti-phosphotyrosine (PT-66) Acceptor beads: PerkinElmer)). The reaction solution was allowed to stand at 25° C. for 16 hrs, and the […] were counted using a plate reader (Fusion™ (PerkinElmer)). The kinase inhibitory rate (%) of the test compound was calculated by the following formula: Inhibitory rate (%)=(1−(count of test compound−blank)÷(control−blank))×100
(§1) The count of the solution reacted without addition of the compound was used as a “control”, and the count of the solution without the compound and ATP was used as a “blank”.

[3] = target: T2, FLT3 intracellular domain protein (Homo sapiens, UniProt P36888); experiment: Fms Like Tyrosine Kinase 3 (FLT3) kinase inhibitory activity (AlphaScreen); assay type: biochemical; details: for inhibition at 1 µM: 1 μM test compound, read-out: inhibitory rate (%) at 1 μM
T2 construct: 7.5 ng/ml of FLT3 intracellular domain protein (Millipore); purchased Millipore
T2 sequence (P36888 564-993 limits assumed): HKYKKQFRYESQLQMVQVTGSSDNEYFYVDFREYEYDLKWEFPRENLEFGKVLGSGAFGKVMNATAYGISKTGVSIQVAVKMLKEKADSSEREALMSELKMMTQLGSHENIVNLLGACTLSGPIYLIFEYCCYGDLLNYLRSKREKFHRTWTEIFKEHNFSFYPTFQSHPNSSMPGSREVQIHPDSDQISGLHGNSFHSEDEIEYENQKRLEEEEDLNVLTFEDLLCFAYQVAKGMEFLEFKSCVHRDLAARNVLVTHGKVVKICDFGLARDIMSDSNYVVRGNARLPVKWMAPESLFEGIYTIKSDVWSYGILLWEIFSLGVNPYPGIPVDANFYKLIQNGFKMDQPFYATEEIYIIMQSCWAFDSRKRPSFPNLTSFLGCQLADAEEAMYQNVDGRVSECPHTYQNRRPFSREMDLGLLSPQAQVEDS
Protocol: A test compound dissolved in dimethyl sulfoxide (DMSO) was diluted with a buffer (50 mM Tris-HCl (pH 7.5), 5 mM MgCl2, 5 mM MnCl2, 2 mM dithiothreitol, 0.01% Tween-20). To this compound solution (5 μL) was added a buffer (10 μL) containing 7.5 ng/ml of FLT3 intracellular domain protein (Millipore) and 250 ng/mL of biotin labeled polypeptide biotinyl-poly-Glu:Tyr (4:1) (CIS bio International). At 5 min after mixing kinase enzyme and the compound and biotin labeled polypeptide, to the obtained mixture was added a buffer (10 μL) containing ATP (5 μM), the mixture was allowed to react at 25° C. for 10 min and the reaction was quenched with 25 μL of a stop solution (100 mM EDTA disodium salt, 62.5 mM HEPES buffer (pH 7.4), 250 mM NaCl, 0.1% bovine serum albumin, 10 μg/mL AlphaScreen assay streptavidin donor beads (Streptavidin Donor Beads: PerkinElmer), 10 μg/mL AlphaScreen assay anti-phosphotyrosine recognition antibody Y-100 binding acceptor beads (Anti-phosphotyrosine (P-Tyr-100) Acceptor beads: PerkinElmer)). The reaction solution was allowed to stand at 25° C. for 16 hrs, and the wells were counted using a plate reader (Envision™ (PerkinElmer)). The kinase inhibitory rate (%) of the test compound was calculated by the following formula: Inhibitory rate (%)=(1−(count of test compound−blank)÷(control−blank))×100
as §1

T1 sequence (Q02763 770-1124 limits assumed): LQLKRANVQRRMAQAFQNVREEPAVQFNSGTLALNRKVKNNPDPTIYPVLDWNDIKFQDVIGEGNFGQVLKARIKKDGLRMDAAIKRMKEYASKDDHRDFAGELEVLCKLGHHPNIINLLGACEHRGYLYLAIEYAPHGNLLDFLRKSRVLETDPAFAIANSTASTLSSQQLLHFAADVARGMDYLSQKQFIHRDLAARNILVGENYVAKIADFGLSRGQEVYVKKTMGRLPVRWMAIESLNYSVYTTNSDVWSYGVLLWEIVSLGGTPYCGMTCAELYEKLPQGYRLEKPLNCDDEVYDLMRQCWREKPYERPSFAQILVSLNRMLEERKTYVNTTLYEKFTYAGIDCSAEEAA

Row | Structure (SMILES) | IC50 [1] [µM] | IC50 [2] [µM] | IC50 [3] [µM] | inhibition at 1 µM ([2]; 1 μM test compound, read-out: inhibitory rate (%) at 1 μM) [%] | inhibition at 1 µM [3] [%] | inhibition at 1 µM [1] [%]
1 | Cc1ccc(C(=O)Nc2ccc(Oc3ccc4nc(NC(=O)C5CC5)cn4c3)cn2)c(=O)n1-c1ccc(F)cc1 [Example 60, N-[5-({2-[(cyclopropylcarbonyl)amino]imidazo[1,2-a]pyridin-6-yl}oxy)pyridin-2-yl]-1-(4-fluorophenyl)-6-methyl-2-oxo-1,2-dihydropyridine-3-carboxamide] | ≤ 1 | ≤ 1 | ≤ 1 | – | – | ≥ 80
2 | O=C(Nc1cn2cc(Oc3ccc(NC(=O)N4CCN(c5ccc(F)cc5)C4=O)cc3F)ccc2n1)C1CC1 [Example 53, N-[4-({2-[(cyclopropylcarbonyl)amino]imidazo[1,2-a]pyridin-6-yl}oxy)-3-sfluorophenyl]-3-(4-fluorophenyl)-2-oxoimidazolidine-1-carboxamide] | ≤ 1 | ≤ 1 | ≤ 1 | ≥ 50 | ≥ 50 | ≥ 80
3 | O=C(Nc1cn2cc(Oc3ccc(NC(=O)C4(C(=O)Nc5ccc(F)cc5)CC4)cc3F)ccc2n1)C1CC1 [Example 11, N-[4-({2-[(cyclopropylcarbonyl)amino]imidazo[1,2-a]pyridin-6-yl}oxy)-3-fluorophenyl]-N′-(4-fluorophenyl)cyclopropane-1,1-dicarboxamide] | ≤ 1 | ≤ 1 | ≤ 1 | – | – | ≥ 80
4 | O=C(Nc1cn2cc(Oc3ccc(NC(=O)C4(C(=O)Nc5ccccc5)CC4)cc3F)ccc2n1)C1CC1 [Example 14, N-[4-({2-[(cyclopropylcarbonyl)amino]imidazo[1,2-a]pyridin-6-yl}oxy)-3-fluorophenyl]-N′-phenylcyclopropane-1,1-dicarboxamide] | ≤ 1 | ≤ 1 | ≤ 1 | – | – | ≥ 80
5 | O=C(Nc1nc2ccc(Oc3ccc(NC(=O)C4(C(=O)Nc5ccccc5)CC4)cc3F)cc2s1)C1CC1 [Example 18, N-[4-({2-[(cyclopropylcarbonyl)amino]-1,3-benzothiazol-6-yl}oxy)-3-fluorophenyl]-N′-phenylcyclopropane-1,1-dicarboxamide] | ≤ 1 | ≤ 1 | ≤ 1 | – | ≥ 50 | ≥ 80
6 | Cc1ccc(C(=O)Nc2ccc(Oc3ccc4nc(NC(=O)C5CC5)cn4c3)c(F)c2)c(=O)n1-c1ccc(F)cc1.Cl [Example 32, N-[4-({2-[(cyclopropylcarbonyl)amino]imidazo[1,2-a]pyridin-6-yl}oxy)-3-fluorophenyl]-1-(4-fluorophenyl)-6-methyl-2-oxo-1,2-dihydropyridine-3-carboxamide hydrochloride] | ≤ 1 | – | – | – | – | ≥ 80
7 | Cc1ccc(C(=O)Nc2ccc(Oc3ccc4nc(NC(=O)C5CC5)cn4c3)c(Cl)c2)c(=O)n1-c1ccc(F)cc1 [Example 57, N-[3-chloro-4-({2-[(cyclopropylcarbonyl)amino]imidazo[1,2-a]pyridin-6-yl}oxy)phenyl]-1-(4-fluorophenyl)-6-methyl-2-oxo-1,2-dihydropyridine-3-carboxamide] | ≤ 1 | ≤ 1 | ≤ 1 | – | – | ≥ 80

More lines, main results first:

Row | IC50 [1] [µM] | IC50 [2] [µM] | IC50 [3] [µM] | inhibition at 1 µM ([2]; 1 μM test compound, read-out: inhibitory rate (%) at 1 μM) [%] | inhibition at 1 µM [3] [%] | Structure (SMILES) | inhibition at 1 µM [1] [%]
8 | ≤ 1 | ≤ 1 | ≤ 1 | – | – | Cc1ccc(C(=O)Nc2ccc(Oc3ccc4nc(NC(=O)C5CC5)cn4c3)cn2)[n+]([O-])c1-c1ccc(F)cc1 [Example 61, N-[5-({2-[(cyclopropylcarbonyl)amino]imidazo[1,2-a]pyridin-6-yl}oxy)pyridin-2-yl]-6-(4-fluorophenyl)-5-methylpyridine-2-carboxamide 1-oxide] | ≥ 80
9 | ≤ 1 | ≤ 1 | ≤ 1 | – | – | Cc1ccc(C(=O)Nc2ccc(Oc3ccn4nc(NC(=O)C5CC5)nc4c3)c(F)c2)c(=O)n1-c1ccc(F)cc1 [Example 76, N-[4-({2-[(cyclopropylcarbonyl)amino][1,2,4]triazolo[1,5-a]pyridine-7-yl}oxy)-3-fluorophenyl]-1-(4-fluorophenyl)-6-methyl-2-oxo-1,2-dihydropyridine-3-carboxamide] | ≥ 80
10 | ≤ 1 | ≤ 1 | ≤ 1 | – | – | Cc1cc(C(=O)Nc2ccc(Oc3ccc4nc(NC(=O)C5CC5)cn4c3)c(F)c2)c(=O)n(-c2ccc(F)cc2)c1C [Example 70, N-[4-({2-[(cyclopropylcarbonyl)amino]imidazo[1,2-a]pyridin-6-yl}oxy)-3-fluorophenyl]-1-(4-fluorophenyl)-5,6-dimethyl-2-oxo-1,2-dihydropyridine-3-carboxamide] | ≥ 80
11 | ≤ 1 | ≤ 1 | ≤ 1 | – | – | Cc1ccc(C(=O)Nc2ccc(Oc3ccc4nc(NC(=O)C5CC5)cn4c3)c(F)c2)c(=O)n1-c1cccc(F)c1 [Example 75, N-[4-({2-[(cyclopropylcarbonyl)amino]imidazo[1,2-a]pyridin-6-yl}oxy)-3-fluorophenyl]-1-(3-fluorophenyl)-6-methyl-2-oxo-1,2-dihydropyridine-3-carboxamide] | ≥ 80
12 | ≤ 1 | ≤ 1 | ≤ 1 | – | – | CC1CCN(C(=O)Nc2ccc(Oc3ccc4nc(NC(=O)C5CC5)cn4c3)c(F)c2)C(=O)N1c1ccc(F)cc1 (centres unmarked) [Example 80, N-[4-({2-[(cyclopropylcarbonyl)amino]imidazo[1,2-a]pyridin-6-yl}oxy)-3-fluorophenyl]-3-(4-fluorophenyl)-4-methyl-2-oxotetrahydropyrimidine-1(2H)-carboxamide] | ≥ 80
13 | ≤ 1 | ≤ 1 | ≤ 1 | – | – | CC1=C(c2ccc(F)cc2)C(=O)N(C(=O)Nc2ccc(Oc3ccc4nc(NC(=O)C5CC5)cn4c3)c(F)c2)CC1 [Example 81, N-[4-({2-[(cyclopropylcarbonyl)amino]imidazo[1,2-a]pyridin-6-yl}oxy)-3-fluorophenyl]-5-(4-fluorophenyl)-4-methyl-6-oxo-3,6-dihydropyridine-1(2H)-carboxamide] | ≥ 80
